Columns and labels:
[1] = system: Cabbage Looper (Trichoplusia ni) ("CL"), second instar larvae; test: Bioassay on cabbage looper (CL), 128-well diet tray assay; assay type: in vivo; details: for pest or weed control at 50 µg/cm2: Trichoplusia ni, read-out: CL rating; for CL rating: Table ABC, species CL, C = not tested, D = no activity noticed
Summary of the method: (§1)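 Second-instar larvae on diet in 128-well trays, covered and held at 25° C, 14:10 light-dark, for five to seven days. Percent mortality scored per well and averaged over eight wells; activity reported as a rating category.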

[2] = system: Beet Armyworm (Spodoptera exigua) ("BAW"), second instar larvae; test: Bioassay on beet armyworm (BAW), 128-well diet tray assay; assay type: in vivo; details: for pest or weed control at 50 µg/cm2: Spodoptera exigua, read-out: BAW rating; for BAW rating: Table ABC, species BAW, C = not tested, D = no activity noticed
Summary of the method: as §1

Q: Which pest or weed control at 50 µg/cm2 [1] does the source give for `CC(C)c1ccc(N(C)C)cc1N1C(=O)CS/C1=N\C(=O)Nc1ccc(-c2cn(-c3ccc(OC(F)(F)F)cc3)cn2)cc1F` [Compound J474, (Z)-1-(3-(5-(Dimethylamino)-2-isopropylphenyl)-4-oxothiazolidin-2-ylidene)-3-(2-fluoro-4-(1-(4-(trifluoromethoxy)phenyl)-1H-imidazol-4-yl)phenyl)urea] here?
A: 50 to 100%

Q: And the pest or weed control at 50 µg/cm2 [2]?
A: 50 to 100%

Q: What does the source list for `Cc1ccc(OCCC(F)(F)F)c(N2C(=O)CS/C2=N\C(=O)Nc2ccc(-c3cn(-c4ccc(OC(F)(F)F)cc4)cn3)cc2F)c1` [Compound J476, (Z)-1-(2-Fluoro-4-(1-(4-(trifluoromethoxy)phenyl)-1H-imidazol-4-yl)phenyl)-3-(3-(5-methyl-2-(3,3,3-trifluoropropoxy)phenyl)-4-oxothiazolidin-2-ylidene)urea]?
A: pest or weed control at 50 µg/cm2 [1]: 50 to 100%; pest or weed control at 50 µg/cm2 [2]: 50 to 100%

Q: `Cc1ccc(C(C)C)c(N2C(=O)CS/C2=N\C(=O)Nc2ccc(-c3cn(-c4ccc(OC(F)(F)F)cc4)cn3)cc2C)c1` [Compound J477, (Z)-1-(3-(2-Isopropyl-5-methylphenyl)-4-oxothiazolidin-2-ylidene)-3-(2-methyl-4-(1-(4-(trifluoromethoxy)phenyl)-1H-imidazol-4-yl)phenyl)urea] was tested. Which pest or weed control at 50 µg/cm2 [1] did it give?
A: 50 to 100%

Q: And the pest or weed control at 50 µg/cm2 [2]?
A: 50 to 100%

Q: What does the source list for `CC(C)c1ccc(N(C)C)cc1N1C(=O)CS/C1=N\C(=O)Nc1ccc(-c2cn(-c3ccc(C(F)(F)F)cn3)cn2)cc1F` [Compound J481, (Z)-1-(3-(5-(Dimethylamino)-2-isopropylphenyl)-4-oxothiazolidin-2-ylidene)-3-(2-fluoro-4-(1-(5-(trifluoromethyl)pyridin-2-yl)-1H-imidazol-4-yl)phenyl)urea]?
A: pest or weed control at 50 µg/cm2 [1]: 50 to 100%; pest or weed control at 50 µg/cm2 [2]: 50 to 100%

Q: What does the source list for `Cc1ccc(C(C)C)c(N2C(=O)CS/C2=N\C(=O)Nc2ccc(-c3cn(-c4ccc(C(F)(F)F)cn4)cn3)cc2F)c1` [Compound J482, (Z)-1-(2-Fluoro-4-(1-(5-(trifluoromethyl)pyridin-2-yl)-1H-imidazol-4-yl)phenyl)-3-(3-(2-isopropyl-5-methylphenyl)-4-oxothiazolidin-2-ylidene)urea]?
A: pest or weed control at 50 µg/cm2 [1]: 50 to 100%; pest or weed control at 50 µg/cm2 [2]: 50 to 100%

Q: For `CN(C)c1ccc(C(F)(F)F)c(N2C(=O)CS/C2=N\C(=O)Nc2ccc(-c3cn(-c4ccc(C(F)(F)F)cn4)cn3)cc2F)c1` [Compound J483, (Z)-1-(3-(5-(Dimethylamino)-2-(trifluoromethyl)phenyl)-4-oxothiazolidin-2-ylidene)-3-(2-fluoro-4-(1-(5-(trifluoromethyl)pyridin-2-yl)-1H-imidazol-4-yl)phenyl)urea], which pest or weed control at 50 µg/cm2 [1] is on record?
A: 50 to 100%

Q: And the pest or weed control at 50 µg/cm2 [2]?
A: 50 to 100%

Q: How did the pest or weed control at 50 µg/cm2 [1] turn out when `Cc1ccc(OCCC(F)(F)F)c(N2C(=O)CS/C2=N\C(=O)Nc2ccc(-c3cn(-c4ccc(C(F)(F)F)cn4)cn3)cc2F)c1` [Compound J484, (Z)-1-(2-Fluoro-4-(1-(5-(trifluoromethyl)pyridin-2-yl)-1H-imidazol-4-yl)phenyl)-3-(3-(5-methyl-2-(3,3,3-trifluoropropoxy)phenyl)-4-oxothiazolidin-2-ylidene)urea] was run?
A: 50 to 100%

Q: What about the pest or weed control at 50 µg/cm2 [2] of the same compound?
A: 50 to 100%

Q: For `COC(c1ccc(C)cc1N1C(=O)CS/C1=N\C(=O)Nc1ccc(-c2cn(-c3ccc(C(F)(F)F)cn3)cn2)cc1F)C(F)(F)F` (centres unmarked) [Compound J485, (Z)-1-(2-Fluoro-4-(1-(5-(trifluoromethyl)pyridin-2-yl)-1H-imidazol-4-yl)phenyl)-3-(3-(5-methyl-2-(2,2,2-trifluoro-1-methoxyethyl)phenyl)-4-oxothiazolidin-2-ylidene)urea], which pest or weed control at 50 µg/cm2 [1] is on record?
A: 50 to 100%

Q: What about the pest or weed control at 50 µg/cm2 [2] of the same compound?
A: 50 to 100%

Q: For `CCOC(C)c1ccc(C)cc1N1C(=O)CS/C1=N\C(=O)Nc1ccc(-c2cn(-c3ccc(OC(F)(F)F)cc3)cn2)cc1C` (centres unmarked) [Compound J486, (Z)-1-(3-(2-(1-Ethoxyethyl)-5-methylphenyl)-4-oxothiazolidin-2-ylidene)-3-(2-methyl-4-(1-(4-(trifluoromethoxy)phenyl)-1H-imidazol-4-yl)phenyl)urea], which pest or weed control at 50 µg/cm2 [1] is on record?
A: 50 to 100%

Q: What about the pest or weed control at 50 µg/cm2 [2] of the same compound?
A: 50 to 100%

Q: What does the source list for `Cc1ccc(COCC(F)(F)F)c(N2C(=O)CS/C2=N\C(=O)Nc2ccc(-c3cn(-c4ccc(C(F)(F)F)cn4)cn3)cc2F)c1` [Compound J487, (Z)-1-(2-Fluoro-4-(1-(5-(trifluoromethyl)pyridin-2-yl)-1H-imidazol-4-yl)phenyl)-3-(3-(5-methyl-2-((2,2,2-trifluoroethoxy)methyl)phenyl)-4-oxothiazolidin-2-ylidene)urea]?
A: pest or weed control at 50 µg/cm2 [1]: 50 to 100%; pest or weed control at 50 µg/cm2 [2]: 50 to 100%

Q: Which pest or weed control at 50 µg/cm2 [1] does the source give for `Cc1ccc(-c2ccco2)c(N2C(=O)CS/C2=N\C(=O)Nc2ccc(-c3ncn(-c4ccc(OC(F)(F)F)cc4)n3)cc2C)c1` [Compound J488, (Z)-1-(3-(2-(Furan-2-yl)-5-methylphenyl)-4-oxothiazolidin-2-ylidene)-3-(2-methyl-4-(1-(4-(trifluoromethoxy)phenyl)-1H-1,2,4-triazol-3-yl)phenyl)urea] here?
A: 50 to 100%

Q: And the pest or weed control at 50 µg/cm2 [2]?
A: 50 to 100%

Q: Which pest or weed control at 50 µg/cm2 [1] does the source give for `Cc1ccc(-c2ccco2)c(N2C(=O)CS/C2=N\C(=O)Nc2ccc(-c3ncn(-c4ccc(OC(F)(F)F)cc4)n3)cc2F)c1` [Compound J489, (Z)-1-(2-Fluoro-4-(1-(4-(trifluoromethoxy)phenyl)-1H-1,2,4-triazol-3-yl)phenyl)-3-(3-(2-(furan-2-yl)-5-methylphenyl)-4-oxothiazolidin-2-ylidene)urea] here?
A: 50 to 100%

Q: And the pest or weed control at 50 µg/cm2 [2]?
A: 50 to 100%

Q: How did the pest or weed control at 50 µg/cm2 [1] turn out when `CCOCc1ccc(C)cc1N1C(=O)CS/C1=N\C(=O)Nc1ccc(-c2cn(-c3ccc(OC(F)(F)F)cc3)nn2)cc1` [Compound J493, (Z)-1-(3-(2-(Ethoxymethyl)-5-methylphenyl)-4-oxothiazolidin-2-ylidene)-3-(4-(1-(4-(trifluoromethoxy)phenyl)-1H-1,2,3-triazol-4-yl)phenyl)urea] was run?
A: 50 to 100%

Q: What about the pest or weed control at 50 µg/cm2 [2] of the same compound?
A: 50 to 100%

Q: `COC(c1ccc(C)cc1N1C(=O)CS/C1=N\C(=O)Nc1ccc(-c2cn(-c3ccc(OC(F)(F)F)cc3)nn2)cc1)C(F)(F)F` (centres unmarked) [Compound J494, (Z)-1-(3-(5-Methyl-2-(2,2,2-trifluoro-1-methoxyethyl)phenyl)-4-oxothiazolidin-2-ylidene)-3-(4-(1-(4-(trifluoromethoxy)phenyl)-1H-1,2,3-triazol-4-yl)phenyl)urea] was tested. Which pest or weed control at 50 µg/cm2 [1] did it give?
A: 50 to 100%

Q: And the pest or weed control at 50 µg/cm2 [2]?
A: 50 to 100%

Q: What does the source list for `COCc1ccc(N(C)C)cc1N1C(=O)CS/C1=N\C(=O)Nc1ccc(-c2cn(-c3ccc(OC(F)(F)F)cc3)nn2)cc1` [Compound J496, (Z)-1-(3-(5-(Dimethylamino)-2-(methoxymethyl)phenyl)-4-oxothiazolidin-2-ylidene)-3-(4-(1-(4-(trifluoromethoxy)phenyl)-1H-1,2,3-triazol-4-yl)phenyl)urea]?
A: pest or weed control at 50 µg/cm2 [1]: 50 to 100%; pest or weed control at 50 µg/cm2 [2]: 50 to 100%

Q: With `Cc1cc(COCC(F)(F)F)c(N2C(=O)CS/C2=N\C(=O)Nc2ccc(-c3ncn(-c4ccc(S(F)(F)(F)(F)F)cc4)n3)cc2F)cc1C` [Compound J497] as the compound, how does the CL rating [1] read?
A: A (50-100)

Q: And the BAW rating [2]?
A: A (50-100)

Q: What does the source list for `CCCc1ccc(C)cc1N1C(=O)CS/C1=N\C(=O)Nc1ccc(-c2ncn(-c3ccc(S(F)(F)(F)(F)F)cc3)n2)cc1F` [Compound J498]?
A: CL rating [1]: A (50-100); BAW rating [2]: A (50-100)

Q: `Cc1ccc(C(C)C)c(N2C(=O)CS/C2=N\C(=O)Nc2ccc(-c3nnc(-c4ccc(OC(F)(F)F)cc4)s3)cc2F)c1` [Compound J499, (Z)-1-(2-Fluoro-4-(5-(4-(trifluoromethoxy)phenyl)-1,3,4-thiadiazol-2-yl)phenyl)-3-(3-(2-isopropyl-5-methylphenyl)-4-oxothiazolidin-2-ylidene)urea] was tested. Which pest or weed control at 50 µg/cm2 [1] did it give?
A: 50 to 100%

Q: And the pest or weed control at 50 µg/cm2 [2]?
A: 50 to 100%

Q: Which results are given for `Cc1ccc(COCC(F)(F)F)c(N2C(=O)CS/C2=N\C(=O)Nc2ccc(-c3nnc(-c4ccc(OC(F)(F)F)cc4)s3)cc2F)c1` [Compound J500, (Z)-1-(2-Fluoro-4-(5-(4-(trifluoromethoxy)phenyl)-1,3,4-thiadiazol-2-yl)phenyl)-3-(3-(5-methyl-2-((2,2,2-trifluoroethoxy)methyl)phenyl)-4-oxothiazolidin-2-ylidene)urea]?
A: pest or weed control at 50 µg/cm2 [1]: 50 to 100%; pest or weed control at 50 µg/cm2 [2]: 50 to 100%

Q: What does the source list for `COC(C)c1ccc(C)cc1N1C(=O)CS/C1=N\C(=O)Nc1ccc(-c2nnc(-c3ccc(OC(F)(F)F)cc3)s2)cc1F` (centres unmarked) [Compound J504, (Z)-1-(2-Fluoro-4-(5-(4-(trifluoromethoxy)phenyl)-1,3,4-thiadiazol-2-yl)phenyl)-3-(3-(2-(1-methoxyethyl)-5-methylphenyl)-4-oxothiazolidin-2-ylidene)urea]?
A: pest or weed control at 50 µg/cm2 [1]: 50 to 100%; pest or weed control at 50 µg/cm2 [2]: 0 to 50%

Q: Which pest or weed control at 50 µg/cm2 [1] does the source give for `CC(C)c1ccc(N(C)C)cc1N1C(=O)CS/C1=N\C(=O)Nc1ccc(-c2nnc(-c3ccc(OC(F)(F)F)cc3)s2)cc1F` [Compound J506, (Z)-1-(3-(5-(Dimethylamino)-2-isopropylphenyl)-4-oxothiazolidin-2-ylidene)-3-(2-fluoro-4-(5-(4-(trifluoromethoxy)phenyl)-1,3,4-thiadiazol-2-yl)phenyl)urea] here?
A: 50 to 100%

Q: And the pest or weed control at 50 µg/cm2 [2]?
A: 50 to 100%

Q: How did the pest or weed control at 50 µg/cm2 [1] turn out when `CC(C)c1cc(F)c(N(C)C)cc1N1C(=O)CS/C1=N\C(=O)Nc1ccc(-c2nnc(-c3ccc(OC(F)(F)F)cc3)s2)cc1F` [Compound J507, (Z)-1-(3-(5-(Dimethylamino)-4-fluoro-2-isopropylphenyl)-4-oxothiazolidin-2-ylidene)-3-(2-fluoro-4-(5-(4-(trifluoromethoxy)phenyl)-1,3,4-thiadiazol-2-yl)phenyl)urea] was run?
A: 50 to 100%

Q: And the pest or weed control at 50 µg/cm2 [2]?
A: 50 to 100%

Reference: patent US20230077362A1 (CORTEVA AGRISCIENCE LLC, priority 2019, published 2023)
